This passage reports IC50, half-life and blood glucose level results from PMC5643545, “A novel library of -arylketones as potential inhibitors of α-glucosidase: Their design, synthesis, in vitro and in vivo studies” (Scientific Reports, 2017).

A value given as a limit tells only on which side of the number the result lay.

The target in data set [1] is T1, α-fucosidase (bovine kidney origin) (Bos taurus, UniProt Q2KIM0).
T1 construct: purchased Sigma Aldrich; host or cells: bovine kidney
T1 sequence (Q2KIM0 23-468): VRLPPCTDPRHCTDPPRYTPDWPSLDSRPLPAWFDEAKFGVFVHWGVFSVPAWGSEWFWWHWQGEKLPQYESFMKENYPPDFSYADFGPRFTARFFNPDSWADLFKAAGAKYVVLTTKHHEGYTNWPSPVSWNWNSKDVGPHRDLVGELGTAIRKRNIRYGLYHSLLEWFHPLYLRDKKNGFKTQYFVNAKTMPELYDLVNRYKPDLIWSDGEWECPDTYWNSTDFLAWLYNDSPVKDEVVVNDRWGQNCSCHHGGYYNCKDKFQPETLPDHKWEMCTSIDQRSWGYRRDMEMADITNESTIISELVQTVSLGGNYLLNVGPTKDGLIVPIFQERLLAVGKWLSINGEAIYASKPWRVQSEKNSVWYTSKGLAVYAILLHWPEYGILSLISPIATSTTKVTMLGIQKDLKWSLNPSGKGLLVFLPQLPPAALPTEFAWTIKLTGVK
Kind of data set: α-fucosidase inhibition assay, 96-well. The note with it: two independent assays, performed in duplicate; read-out: IC50s α-fucosidase (bovine kidney). Type of data set: biochemical. The procedure: (§1) To assess the inhibitory effect and also the extent of selectivity our library was against α-glucosidase (yeast origin), α-fucosidase (bovine kidney origin) and α-mannosidase (jack bean origin) (in 96-well plates employing 4-nitrophenyl-α-D-glucopyranoside (PNPG) as substrate) (Table 1). The test compounds were dissolved and diluted in dimethyl sulfoxide (DMSO). They were placed in the plate along with the substrate and 10 mM of potassium […] buffer. They were then reacted with appropriate enzymes. After incubating the plates for ten minutes, the absorbance of the wells were measured at […]. The increase in […] (ΔA) was compared against the control i.e. buffer.
(§2) The inhibitory effect of the synthesized compounds on α-glucosidase (yeast origin), α-fucosidase (bovine kidney origin) and α-mannosidase (jack bean origin) inhibitory activity was determined in 96-well plates employing the substrate PNPG and 4-nitrophenyl α-D-glucopyranoside according to the procedure previously reported by Ferreres et al.[42]. […] The absorbance was measured spectrophotometrically at 430 nm (Spectra Max M5e micro plate reader). The increase in absorbance (ΔA) was compared with that of the control (buffer instead of test compound) to compute the inhibitory concentrations (IC50) which was determined from two independent assays, performed in duplicate. […]

Data set [2] addresses T2, α-mannosidase (jack bean origin) (Canavalia ensiformis, UniProt C0HJB3).
T2 construct: purchased Sigma Aldrich; host or cells: jack bean
T2 sequence (C0HJB3 1-981): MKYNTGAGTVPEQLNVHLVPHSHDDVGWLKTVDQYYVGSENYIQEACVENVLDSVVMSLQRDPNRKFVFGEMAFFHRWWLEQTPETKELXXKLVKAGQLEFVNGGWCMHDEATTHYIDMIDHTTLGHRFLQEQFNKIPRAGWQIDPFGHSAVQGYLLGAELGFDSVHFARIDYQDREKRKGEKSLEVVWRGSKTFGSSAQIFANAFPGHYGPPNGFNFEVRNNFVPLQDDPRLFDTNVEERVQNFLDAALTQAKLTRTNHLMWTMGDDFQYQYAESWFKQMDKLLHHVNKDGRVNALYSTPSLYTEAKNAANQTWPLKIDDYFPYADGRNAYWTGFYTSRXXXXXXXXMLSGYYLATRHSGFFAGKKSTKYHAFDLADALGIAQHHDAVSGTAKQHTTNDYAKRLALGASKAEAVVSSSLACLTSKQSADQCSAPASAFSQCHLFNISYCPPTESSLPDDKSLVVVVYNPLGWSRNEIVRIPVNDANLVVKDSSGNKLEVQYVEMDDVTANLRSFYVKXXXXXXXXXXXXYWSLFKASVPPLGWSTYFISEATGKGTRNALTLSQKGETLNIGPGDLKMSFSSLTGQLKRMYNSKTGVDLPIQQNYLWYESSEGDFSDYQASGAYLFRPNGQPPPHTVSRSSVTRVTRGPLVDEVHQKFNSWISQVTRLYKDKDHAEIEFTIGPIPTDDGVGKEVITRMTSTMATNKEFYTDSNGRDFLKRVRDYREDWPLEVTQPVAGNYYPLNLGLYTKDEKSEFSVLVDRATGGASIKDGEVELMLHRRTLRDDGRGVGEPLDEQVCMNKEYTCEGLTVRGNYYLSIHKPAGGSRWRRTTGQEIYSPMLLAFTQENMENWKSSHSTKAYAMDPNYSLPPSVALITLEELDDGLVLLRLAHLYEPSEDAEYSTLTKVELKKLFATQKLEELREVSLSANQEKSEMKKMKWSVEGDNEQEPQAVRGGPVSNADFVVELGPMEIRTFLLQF
The experiment in a line: α-mannosidase inhibition assay, 96-well. Type of data set: biochemical. The note with it: two independent assays, performed in duplicate; read-out: IC50s α-mannosidase (jack bean). The procedure: as §1, §2

The target of data set [3] is T3, α-glucosidase (yeast origin) (Saccharomyces cerevisiae, UniProt P53341).
T3 construct: purchased Sigma Aldrich
T3 sequence (P53341 whole entry): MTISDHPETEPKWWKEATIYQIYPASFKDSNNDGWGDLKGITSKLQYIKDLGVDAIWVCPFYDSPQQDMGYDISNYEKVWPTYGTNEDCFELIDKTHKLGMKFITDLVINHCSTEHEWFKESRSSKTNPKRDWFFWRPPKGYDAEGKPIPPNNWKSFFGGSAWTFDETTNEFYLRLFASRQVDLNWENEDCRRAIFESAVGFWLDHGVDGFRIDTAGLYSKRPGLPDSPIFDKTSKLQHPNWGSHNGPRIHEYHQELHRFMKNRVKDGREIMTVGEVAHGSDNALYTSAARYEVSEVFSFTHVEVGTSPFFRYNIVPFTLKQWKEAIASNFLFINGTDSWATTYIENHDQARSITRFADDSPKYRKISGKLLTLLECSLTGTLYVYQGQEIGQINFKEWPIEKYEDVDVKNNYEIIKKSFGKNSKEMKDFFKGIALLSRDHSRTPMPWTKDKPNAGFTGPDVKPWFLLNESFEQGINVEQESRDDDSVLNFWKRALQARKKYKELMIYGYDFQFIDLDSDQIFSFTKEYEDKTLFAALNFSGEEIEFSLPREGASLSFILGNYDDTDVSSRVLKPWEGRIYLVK
The experiment in a line: α-glucosidase (yeast) inhibition assay, PNPG substrate, 96-well. Type of data set: biochemical. The following applies: two independent assays, performed in duplicate, 37 °C, 10 min, read-out: IC50s α-glucosidase (yeast).
Procedure: The test compounds were dissolved and diluted in dimethyl sulfoxide (DMSO). They were placed in the plate along with the substrate and 10 mM of potassium sulphate buffer. They were then reacted with appropriate enzymes. After incubating the plates for ten minutes, the absorbance of the wells were measured at 430 nM. The increase in abundance (ΔA) was compared against the control i.e. buffer.
The inhibitory effect of the synthesized compounds on α-glucosidase (yeast origin), α-fucosidase (bovine kidney origin) and α-mannosidase (jack bean origin) inhibitory activity was determined in 96-well plates employing the substrate PNPG and 4-nitrophenyl α-D-glucopyranoside according to the procedure previously reported by Ferreres et al.[42]. Prior to use, all test compounds were solubilised in solvent, dimethylsulfoxide (DMSO), and then further diluted in DMSO to acquire the desired final maximum test concentration. […] The absorbance was measured spectrophotometrically at 430 nm (Spectra Max M5e micro plate reader). The increase in absorbance (ΔA) was compared with that of the control (buffer instead of test compound) to compute the inhibitory concentrations (IC50) which was determined from two independent assays, performed in duplicate.

On the set-up of data set [4]: method as in doi:10.1016/S0065-7743(08)60834-9. The following applies: cited from earlier work.
Data set [5] relates to NA-STZ-diabetic mice. Details: method as in PMID 20879744. The following applies: 10, 31.2 and 56.2 mg/Kg; cited from earlier work.

Take `O=C(Cc1ccccc1Br)c1ccccc1C(=O)NCCc1ccccc1` [3o]: the IC50 in data set [1] was over 50 µM; in data set [2], over 50 µM; in data set [3] it was 6.93 µM.

Turning to `CS(=O)(=O)c1ccc(-n2nc(C(F)(F)F)cc2-c2ccc(F)cc2)cc1` [SC-58125], the half-life in data set [4] is on record as ~ 200 h.

For the molecule `CCCC=C1OC(=O)c2ccccc21` [compound 2], the blood glucose level entry in data set [5] is reported as “lowered blood glucose level”.
